“And” between values parts separate entries of the source, which are not always exact repeats. Identical values can stand only once.
Target: T1, PfCRT^Dd2_F145I (Plasmodium falciparum, UniProt Q8IBZ9, A220S/F145I/I356T/K76T/M74I/N326S/N75E/Q271E/R371I)
T1 construct: expressed in transfected cells; host or cells: Xenopus laevis oocytes injected with in vitro transcribed RNA (pSP64T)
T1 sequence (Q8IBZ9 1-424 M74I/N75E/K76T/F145I/A220S/Q271E/N326S/I356T/R371I): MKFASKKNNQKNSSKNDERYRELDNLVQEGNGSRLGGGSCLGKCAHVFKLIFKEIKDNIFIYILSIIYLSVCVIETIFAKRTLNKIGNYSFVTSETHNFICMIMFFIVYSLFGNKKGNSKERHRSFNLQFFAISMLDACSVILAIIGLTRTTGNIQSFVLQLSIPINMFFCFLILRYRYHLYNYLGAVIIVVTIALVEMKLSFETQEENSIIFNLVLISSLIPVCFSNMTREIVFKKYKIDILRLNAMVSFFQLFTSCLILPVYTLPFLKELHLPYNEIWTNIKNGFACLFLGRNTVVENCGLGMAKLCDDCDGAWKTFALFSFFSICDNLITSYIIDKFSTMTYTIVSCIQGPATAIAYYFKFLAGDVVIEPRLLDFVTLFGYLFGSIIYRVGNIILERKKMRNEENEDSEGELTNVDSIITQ
Assay: Competition kinetics of drug transport (radiolabeled substrate plus cold inhibitor), PfCRT^Dd2_F145I-expressing oocytes
Format: cell-based
Protocol: To further characterize the kinetic relationship between CQ and PPQ, we performed a series of competition reactions. To this end, water-injected oocytes and PfCRT-expressing oocytes were incubated in medium containing one of seven concentrations of radio-labeled CQ and one of six concentrations of cold PPQ for 60 min before the amount of radio-labeled CQ uptake was determined. The rate of PfCRT-mediated CQ uptake was calculated for each condition by subtracting the corresponding value obtained for water-injected oocytes from those of PfCRT-expressing oocytes. The results were analyzed as a function of the CQ concentration (Fig 4A) and 16 different models of substrate competition were globally fit to the data by the least-squares method, using Python. The models were ranked, according to their Akaike information criterion difference (ΔAICC) and their Akaike weight (Fig 4B), with the most plausible model being the one with the lowest AICC (ΔAICC = 0) and the highest Akaike weight.
A complementary set of experiments was undertaken to investigate the kinetic mechanism by which PfCRT^Dd2_F145I accepts CQ and PPQ (Fig 6). […] These included a global fit of the substrate competition data to the 16 kinetic models (Fig 6), analysis of the secondary plots (Vmax,app and Vmax,app/KM,app as a function of the inhibitor concentration) (Fig 7A), a fractional velocity plot analysis (Fig 7B) and a comparison of the experimental data with the modelled data using the noncompetitive inhibition equation (Fig 7C to 7F). […] The fractional velocity plot illustrated the partial character of the noncompetitive inhibition mechanism by yielding a partiality factor β^CQ = 0.31 ± 0.04, by which PPQ reduces the transport velocity of CQ (Fig 7B). […] A 3D model of the kinetics between PfCRT^Dd2_F145I, CQ and PPQ, and analyses of the residuals as a function of substrate and inhibitor concentrations confirmed that the model was also an appropriate explanation for the mutant transporter (Fig 7C to 7F).
Drug transport assays were performed as previously described. Briefly, measurements of radiolabeled drug uptake were made over 1 h, unless otherwise specified. […] Where specified, one or more unlabeled drugs were also present at the indicated concentrations. The direction of drug transport in the assays is from the extracellular medium (pH 6) into the oocyte cytosol (pH 7.2), which corresponds to the efflux of CQ or PPQ from the acidic digestive vacuole (pH 5.2) into the parasite cytosol (pH 7.2). The uptake assays were terminated by removing the oocytes from the reaction medium and washing them three times with 2 mL of ice-cold ND96 buffer. Each oocyte was transferred to a separate scintillation vial and lysed by the addition of 200 μL of a 5% SDS solution. The radioactivity in the sample was measured using a liquid scintillation analyser Tri-Carb 4910 TR (PerkinElmer). Water-injected oocytes were analyzed in parallel as a negative control. The buffer from each condition was measured in duplicate in parallel to each experiment to transform counts per minute into pmol of drug. Drug uptake attributable to PfCRT was determined by subtracting the background uptake from water-injected oocytes from that of PfCRT-expressing oocytes. In all cases, at least three independent experiments were performed on oocytes from different frogs, and for each condition in an experiment, measurements were made from 10 oocytes per treatment.
The following equations were adopted from Segel (1993), and the reader is referred to that text for the assumptions made in the author’s approach in the derivation of each equation [31]. The concentration of substrate is denoted as [S1] and the concentration of the inhibiting substrate is denoted as [S2]. KS1 and KS2 are the dissociation constants for the respective substrate-protein complexes.
Analyses of the kinetic data were performed using SigmaPlot version 13.0 and Python. […]

## CCN(CC)CCCC(C)Nc1ccnc2cc(Cl)ccc12 (stereo not shown) [CQ, chloroquine]
10 µM CQ, 50 µM PPQ
  PfCRTDd2_F145I-mediated CQ transport: 0.59 pmol oocyte-1 h-1 and 0.39 pmol oocyte-1 h-1
10 µM CQ, 125 µM PPQ
  PfCRTDd2_F145I-mediated CQ transport: 0.68 pmol oocyte-1 h-1 and 0.58 pmol oocyte-1 h-1 and 0.47 pmol oocyte-1 h-1
10 µM CQ, 200 µM PPQ
  PfCRTDd2_F145I-mediated CQ transport: 0.27 pmol oocyte-1 h-1 and 0.32 pmol oocyte-1 h-1 and 0.33 pmol oocyte-1 h-1
10 µM CQ, 350 µM PPQ
  PfCRTDd2_F145I-mediated CQ transport: 0.43 pmol oocyte-1 h-1 and 0.31 pmol oocyte-1 h-1 and 0.46 pmol oocyte-1 h-1
50 µM CQ, 0 µM PPQ
  PfCRTDd2_F145I-mediated CQ transport: 3.80 pmol oocyte-1 h-1 and 4.28 pmol oocyte-1 h-1 and 2.84 pmol oocyte-1 h-1
50 µM CQ, 50 µM PPQ
  PfCRTDd2_F145I-mediated CQ transport: 3.24 pmol oocyte-1 h-1 and 2.4 pmol oocyte-1 h-1 and 3.22 pmol oocyte-1 h-1
50 µM CQ, 125 µM PPQ
  PfCRTDd2_F145I-mediated CQ transport: 3.47 pmol oocyte-1 h-1 and 2.37 pmol oocyte-1 h-1 and 2.11 pmol oocyte-1 h-1
50 µM CQ, 200 µM PPQ
  PfCRTDd2_F145I-mediated CQ transport: 2.85 pmol oocyte-1 h-1 and 2.54 pmol oocyte-1 h-1 and 2.07 pmol oocyte-1 h-1
50 µM CQ, 350 µM PPQ
  PfCRTDd2_F145I-mediated CQ transport: 1.72 pmol oocyte-1 h-1 and 1.78 pmol oocyte-1 h-1 and 2.56 pmol oocyte-1 h-1
50 µM CQ, 500 µM PPQ
  PfCRTDd2_F145I-mediated CQ transport: 1.90 pmol oocyte-1 h-1 and 2.40 pmol oocyte-1 h-1
100 µM CQ, 0 µM PPQ
  PfCRTDd2_F145I-mediated CQ transport: 5.25 pmol oocyte-1 h-1 and 7.33 pmol oocyte-1 h-1 and 8.14 pmol oocyte-1 h-1
100 µM CQ, 125 µM PPQ
  PfCRTDd2_F145I-mediated CQ transport: 4.86 pmol oocyte-1 h-1 and 5.68 pmol oocyte-1 h-1 and 5.61 pmol oocyte-1 h-1
100 µM CQ, 200 µM PPQ
  PfCRTDd2_F145I-mediated CQ transport: 4.12 pmol oocyte-1 h-1 and 4.69 pmol oocyte-1 h-1 and 4.23 pmol oocyte-1 h-1
100 µM CQ, 350 µM PPQ
  PfCRTDd2_F145I-mediated CQ transport: 3.37 pmol oocyte-1 h-1 and 4.27 pmol oocyte-1 h-1 and 5.15 pmol oocyte-1 h-1
200 µM CQ, 0 µM PPQ
  PfCRTDd2_F145I-mediated CQ transport: 12.53 pmol oocyte-1 h-1 and 12.79 pmol oocyte-1 h-1
200 µM CQ, 50 µM PPQ
  PfCRTDd2_F145I-mediated CQ transport: 14.25 pmol oocyte-1 h-1 and 10 pmol oocyte-1 h-1 and 10.59 pmol oocyte-1 h-1
200 µM CQ, 125 µM PPQ
  PfCRTDd2_F145I-mediated CQ transport: 10.11 pmol oocyte-1 h-1 and 9.30 pmol oocyte-1 h-1 and 9.95 pmol oocyte-1 h-1
200 µM CQ, 200 µM PPQ
  PfCRTDd2_F145I-mediated CQ transport: 7.48 pmol oocyte-1 h-1 and 7.15 pmol oocyte-1 h-1 and 10.15 pmol oocyte-1 h-1
200 µM CQ, 350 µM PPQ
  PfCRTDd2_F145I-mediated CQ transport: 6.25 pmol oocyte-1 h-1 and 7.4 pmol oocyte-1 h-1 and 8.42 pmol oocyte-1 h-1
200 µM CQ, 500 µM PPQ
  PfCRTDd2_F145I-mediated CQ transport: 7.88 pmol oocyte-1 h-1 and 6.35 pmol oocyte-1 h-1
300 µM CQ, 0 µM PPQ
  PfCRTDd2_F145I-mediated CQ transport: 13.73 pmol oocyte-1 h-1 and 19.15 pmol oocyte-1 h-1
300 µM CQ, 50 µM PPQ
  PfCRTDd2_F145I-mediated CQ transport: 13.84 pmol oocyte-1 h-1 and 14.19 pmol oocyte-1 h-1 and 16.04 pmol oocyte-1 h-1
300 µM CQ, 125 µM PPQ
  PfCRTDd2_F145I-mediated CQ transport: 11.05 pmol oocyte-1 h-1 and 9.73 pmol oocyte-1 h-1 and 15.82 pmol oocyte-1 h-1
300 µM CQ, 200 µM PPQ
  PfCRTDd2_F145I-mediated CQ transport: 10.02 pmol oocyte-1 h-1 and 12.63 pmol oocyte-1 h-1 and 9.83 pmol oocyte-1 h-1
300 µM CQ, 350 µM PPQ
  PfCRTDd2_F145I-mediated CQ transport: 9.31 pmol oocyte-1 h-1 and 9.21 pmol oocyte-1 h-1 and 10.66 pmol oocyte-1 h-1
300 µM CQ, 500 µM PPQ
  PfCRTDd2_F145I-mediated CQ transport: 9.09 pmol oocyte-1 h-1 and 11.47 pmol oocyte-1 h-1
400 µM CQ, 0 µM PPQ
  PfCRTDd2_F145I-mediated CQ transport: 14.23 pmol oocyte-1 h-1 and 18.19 pmol oocyte-1 h-1
400 µM CQ, 50 µM PPQ
  PfCRTDd2_F145I-mediated CQ transport: 15.01 pmol oocyte-1 h-1 and 14.7 pmol oocyte-1 h-1 and 18.28 pmol oocyte-1 h-1
400 µM CQ, 125 µM PPQ
  PfCRTDd2_F145I-mediated CQ transport: 14.33 pmol oocyte-1 h-1 and 12.62 pmol oocyte-1 h-1 and 13.88 pmol oocyte-1 h-1
400 µM CQ, 200 µM PPQ
  PfCRTDd2_F145I-mediated CQ transport: 9.98 pmol oocyte-1 h-1 and 13.36 pmol oocyte-1 h-1 and 12.15 pmol oocyte-1 h-1
400 µM CQ, 350 µM PPQ
  PfCRTDd2_F145I-mediated CQ transport: 7.72 pmol oocyte-1 h-1 and 13.35 pmol oocyte-1 h-1 and 10.83 pmol oocyte-1 h-1
500 µM CQ, 0 µM PPQ
  PfCRTDd2_F145I-mediated CQ transport: 19.16 pmol oocyte-1 h-1 and 17.86 pmol oocyte-1 h-1
500 µM CQ, 50 µM PPQ
  PfCRTDd2_F145I-mediated CQ transport: 16.43 pmol oocyte-1 h-1 and 15.64 pmol oocyte-1 h-1 and 17.36 pmol oocyte-1 h-1
500 µM CQ, 125 µM PPQ
  PfCRTDd2_F145I-mediated CQ transport: 14.97 pmol oocyte-1 h-1 and 16.69 pmol oocyte-1 h-1 and 12.9 pmol oocyte-1 h-1
